Results: patent publication US20260345619A1 (Principia Biopharma Inc., priority 2023, published 2026)

Key:
BTK = settings: over 24 h; cited from earlier work
[1] = healthy volunteers; cited from earlier work
[2] = tested on: bone marrow tyrosine kinase on chromosome X (BMX); settings: cited from earlier work
platelet aggregation = settings: healthy volunteers or patients with ITP; cited from earlier work
[3] = Participants with ≥2, ≥3, ≥4, ≥5 additional reliever puffs of salbutamol/albuterol or levosalbutamol/levalbuterol; type: in vivo, human; settings: for Number of participants with ≥2 additional reliever puffs vs baseline on 2 consecutive days / Number of participants with ≥3 additional reliever puffs vs baseline on 2 consecutive days / Number of participants with ≥4 additional reliever puffs vs baseline on 2 consecutive days / Number of participants with ≥5 additional reliever puffs vs baseline on 2 consecutive days / Participants with ≥2 additional reliever puffs vs baseline on 2 consecutive days, figure in parentheses (share) / Participants with ≥3 additional reliever puffs vs baseline on 2 consecutive days, figure in parentheses (share) / Participants with ≥4 additional reliever puffs vs baseline on 2 consecutive days, figure in parentheses (share) / Participants with ≥5 additional reliever puffs vs baseline on 2 consecutive days, figure in parentheses (share): 12-week treatment period
Method: An analysis was performed on the number of participants with ≥2, ≥3, ≥4, and ≥5 additional reliever puffs of salbutamol/albuterol or levosalbutamol/levalbuterol compared with baseline on 2 consecutive days during the treatment period, to assess increase in reliever medication during 12-week treatment period.

[4] = tested on: B cell lymphocyte kinase (BLK); settings: cited from earlier work

## CC(C)(C=C(C#N)C(=O)N1CCC[C@@H](n2nc(-c3ccc(Oc4ccccc4)cc3F)c3c(N)ncnc32)C1)N1CCN(C2COC2)CC1 (mixture of isomers) [rilzabrutinib, (R)-2-[3-[4-amino-3-(2-fluoro-4-phenoxy-phenyl)pyrazolo[3,4-d]pyrimidin-1-yl]piperidine-1-carbonyl]-4-methyl-4-[4-(oxetan-3-yl)piperazin-1-yl]pent-2-enenitrile]
BTK
  sustained target occupancy: high sustained occupancy over 24 h
[1]
  discontinuation due to an adverse event: no participants discontinued treatment due to an adverse event
  most commonly reported adverse events: gastrointestinal adverse events, including nausea/vomiting and diarrhea
  serious adverse events or deaths: No serious adverse events or deaths were reported
[2]
  IC50: 1 nM
Platelet aggregation
  bleeding problems: does not lead to bleeding problems
[3]; 400 mg BID, N = 32
  Number of participants with ≥2 additional reliever puffs vs baseline on 2 consecutive days: 6 participants
  Number of participants with ≥3 additional reliever puffs vs baseline on 2 consecutive days: 3 participants
  Number of participants with ≥4 additional reliever puffs vs baseline on 2 consecutive days: 2 participants
  Number of participants with ≥5 additional reliever puffs vs baseline on 2 consecutive days: 2 participants
  Participants with ≥2 additional reliever puffs vs baseline on 2 consecutive days, figure in parentheses (share): 18.8
  Participants with ≥3 additional reliever puffs vs baseline on 2 consecutive days, figure in parentheses (share): 9.4
  Participants with ≥4 additional reliever puffs vs baseline on 2 consecutive days, figure in parentheses (share): 6.3
  Participants with ≥5 additional reliever puffs vs baseline on 2 consecutive days, figure in parentheses (share): 6.3
[3]; 400 mg TID, N = 64
  Number of participants with ≥2 additional reliever puffs vs baseline on 2 consecutive days: 11 participants
  Number of participants with ≥3 additional reliever puffs vs baseline on 2 consecutive days: 4 participants
  Number of participants with ≥4 additional reliever puffs vs baseline on 2 consecutive days: 3 participants
  Number of participants with ≥5 additional reliever puffs vs baseline on 2 consecutive days: 1 participants
  Participants with ≥2 additional reliever puffs vs baseline on 2 consecutive days, figure in parentheses (share): 17.2
  Participants with ≥3 additional reliever puffs vs baseline on 2 consecutive days, figure in parentheses (share): 6.3
  Participants with ≥4 additional reliever puffs vs baseline on 2 consecutive days, figure in parentheses (share): 4.7
  Participants with ≥5 additional reliever puffs vs baseline on 2 consecutive days, figure in parentheses (share): 1.6
[3]; both cohorts, vs. placebo arms, 12-week treatment
  number of participants with ≥2 to 5 additional reliever puffs compared to baseline: lower in the rilzabrutinib arms compared to the placebo arms
[4]
  IC50: 6.3 nM
